In ChEMBL document CHEMBL5108056, “Discovery of Isoform-Selective Akt3 Degraders Overcoming Osimertinib-Induced Resistance in Non-Small Cell Lung Cancer Cells” (J Med Chem, 2022):
Active and inactive are the calls of the source. The calls are words filed in the database; no cut-off is given here.

Key:
[1] = molecular target: RAC-alpha serine/threonine-protein kinase (Homo sapiens, UniProt P31749); assay: Induction of AKT1 degradation in human NCI-H1975 cells assessed as reduction in AKT1 protein level incubated for 24 hrs under serum free medium by Western blot analysis; type: cell-based
Chain of RAC-alpha serine/threonine-protein kinase (P31749 whole entry): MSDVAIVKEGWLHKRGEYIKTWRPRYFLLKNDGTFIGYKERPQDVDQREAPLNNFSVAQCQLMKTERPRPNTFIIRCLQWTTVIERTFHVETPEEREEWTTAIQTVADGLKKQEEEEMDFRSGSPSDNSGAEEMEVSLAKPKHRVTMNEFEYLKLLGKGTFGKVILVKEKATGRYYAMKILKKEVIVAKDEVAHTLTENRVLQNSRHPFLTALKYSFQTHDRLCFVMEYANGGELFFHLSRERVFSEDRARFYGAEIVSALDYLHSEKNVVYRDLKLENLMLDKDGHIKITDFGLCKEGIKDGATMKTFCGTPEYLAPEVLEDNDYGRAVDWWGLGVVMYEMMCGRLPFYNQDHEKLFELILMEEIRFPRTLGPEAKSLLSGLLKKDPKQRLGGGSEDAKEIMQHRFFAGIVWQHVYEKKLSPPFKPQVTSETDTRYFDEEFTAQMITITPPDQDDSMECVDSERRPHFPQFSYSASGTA

[2] = molecular target: T1, RAC-gamma serine/threonine-protein kinase (Homo sapiens, UniProt Q9Y243); assay: Induction of AKT3 degradation in human NCI-H1975 cells assessed as reduction in AKT3 protein level at 1000 nM incubated for 24 hrs under serum free medium by Western blot analysis relative to control; type: cell-based
T1 sequence (Q9Y243 whole entry): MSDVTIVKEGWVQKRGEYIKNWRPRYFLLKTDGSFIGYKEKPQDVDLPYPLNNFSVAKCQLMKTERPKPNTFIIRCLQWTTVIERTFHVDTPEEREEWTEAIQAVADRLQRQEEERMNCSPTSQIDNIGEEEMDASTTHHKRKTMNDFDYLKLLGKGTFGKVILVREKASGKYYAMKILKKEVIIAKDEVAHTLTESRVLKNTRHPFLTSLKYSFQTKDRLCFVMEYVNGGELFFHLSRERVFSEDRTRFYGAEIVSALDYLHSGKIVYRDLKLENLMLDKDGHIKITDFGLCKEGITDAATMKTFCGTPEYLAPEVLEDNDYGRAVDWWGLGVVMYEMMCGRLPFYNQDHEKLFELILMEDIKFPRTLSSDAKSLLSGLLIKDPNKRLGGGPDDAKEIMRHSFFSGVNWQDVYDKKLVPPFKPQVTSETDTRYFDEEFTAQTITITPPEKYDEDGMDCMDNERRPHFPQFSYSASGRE

[3] = molecular target: RAC-beta serine/threonine-protein kinase (Homo sapiens, UniProt P31751); assay: Induction of AKT2 degradation in human NCI-H1975 cells assessed as reduction in AKT2 protein level incubated for 24 hrs under serum free medium by Western blot analysis; type: cell-based
Chain of RAC-beta serine/threonine-protein kinase (P31751 whole entry): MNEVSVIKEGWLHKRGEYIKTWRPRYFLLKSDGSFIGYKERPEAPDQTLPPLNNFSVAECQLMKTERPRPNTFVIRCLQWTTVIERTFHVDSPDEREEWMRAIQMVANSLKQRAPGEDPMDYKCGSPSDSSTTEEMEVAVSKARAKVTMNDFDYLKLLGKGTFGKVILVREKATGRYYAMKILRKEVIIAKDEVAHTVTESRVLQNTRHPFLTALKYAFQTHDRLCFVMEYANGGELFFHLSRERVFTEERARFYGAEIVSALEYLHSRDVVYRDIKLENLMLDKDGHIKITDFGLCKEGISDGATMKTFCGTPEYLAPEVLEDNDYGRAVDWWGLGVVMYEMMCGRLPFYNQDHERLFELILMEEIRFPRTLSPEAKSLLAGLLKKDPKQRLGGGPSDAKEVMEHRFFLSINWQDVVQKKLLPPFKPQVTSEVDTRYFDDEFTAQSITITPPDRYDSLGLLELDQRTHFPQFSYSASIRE

[4] = molecular target: T1, RAC-gamma serine/threonine-protein kinase; assay: Induction of AKT3 degradation in human NCI-H1975 cells assessed as reduction in AKT3 protein level incubated for 24 hrs under serum free medium by Western blot analysis; type: cell-based
[5] = molecular target: Epidermal growth factor receptor (Homo sapiens, UniProt P00533, T790M); assay: Inhibition of EGFR T790M mutant in human NCI-H1975 cells incubated for 24 hrs under serum free medium by Western blot analysis; type: cell-based
Chain of Epidermal growth factor receptor (Homo sapiens, UniProt P00533, T790M) (P00533 25-1210 T790M limits assumed): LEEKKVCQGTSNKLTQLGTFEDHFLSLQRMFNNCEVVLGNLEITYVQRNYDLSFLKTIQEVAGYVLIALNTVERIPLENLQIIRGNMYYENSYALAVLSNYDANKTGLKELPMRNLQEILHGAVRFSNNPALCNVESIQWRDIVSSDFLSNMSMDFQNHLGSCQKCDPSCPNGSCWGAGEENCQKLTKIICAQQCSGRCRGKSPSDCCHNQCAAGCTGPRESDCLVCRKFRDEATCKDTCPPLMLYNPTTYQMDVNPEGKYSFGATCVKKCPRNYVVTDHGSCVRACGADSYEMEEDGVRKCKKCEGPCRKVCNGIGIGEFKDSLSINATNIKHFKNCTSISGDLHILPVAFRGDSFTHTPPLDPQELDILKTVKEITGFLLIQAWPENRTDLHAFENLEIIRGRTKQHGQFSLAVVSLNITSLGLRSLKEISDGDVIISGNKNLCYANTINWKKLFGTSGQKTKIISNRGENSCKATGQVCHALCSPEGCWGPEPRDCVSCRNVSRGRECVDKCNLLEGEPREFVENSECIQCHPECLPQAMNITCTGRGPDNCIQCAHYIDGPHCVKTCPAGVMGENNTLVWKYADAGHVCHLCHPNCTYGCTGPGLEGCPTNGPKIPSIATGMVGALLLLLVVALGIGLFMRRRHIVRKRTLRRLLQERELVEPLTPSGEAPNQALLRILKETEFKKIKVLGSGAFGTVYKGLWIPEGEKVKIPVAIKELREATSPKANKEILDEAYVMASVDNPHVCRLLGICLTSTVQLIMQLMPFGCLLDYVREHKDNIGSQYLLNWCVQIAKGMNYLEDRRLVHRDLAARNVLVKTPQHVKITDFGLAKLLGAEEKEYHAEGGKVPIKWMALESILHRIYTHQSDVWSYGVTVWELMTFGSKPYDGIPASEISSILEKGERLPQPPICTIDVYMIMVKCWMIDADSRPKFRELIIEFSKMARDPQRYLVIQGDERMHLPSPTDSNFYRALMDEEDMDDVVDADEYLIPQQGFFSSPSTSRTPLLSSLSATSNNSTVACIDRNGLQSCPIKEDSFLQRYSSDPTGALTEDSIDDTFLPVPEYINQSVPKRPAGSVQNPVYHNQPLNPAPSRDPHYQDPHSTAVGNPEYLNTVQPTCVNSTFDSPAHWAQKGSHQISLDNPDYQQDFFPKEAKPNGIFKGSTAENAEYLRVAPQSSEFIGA

NCI-H1975 [6] = assay: Antiproliferative activity against human osimertinib resistant NCI-H1975 cells assessed as reduction in cell viability measured after 24 hrs by CCK-8 assay; type: functional, cell-based; conditions: NCI-H1975, 24 h
NCI-H1975 [7] = assay: Antiproliferative activity against human NCI-H1975 cells assessed as reduction in cell viability incubated for 72 hrs by CCK-8 assay; conditions: NCI-H1975, 72 h
NCI-H1975 [8] = assay: Antiproliferative activity against human NCI-H1975 cells harbouring wild type Akt3 assessed as reduction in cell viability incubated for 72 hrs by CCK-8 assay; conditions: NCI-H1975, 72 h
NCI-H1975 [9] = assay: Antiproliferative activity against human NCI-H1975 cells harbouring Akt3 T305A/S472A mutant assessed as reduction in cell viability incubated for 72 hrs by CCK-8 assay; type: functional, cell-based; conditions: NCI-H1975, 72 h
[10] = molecular target: T1, RAC-gamma serine/threonine-protein kinase; assay: Induction of AKT3 degradation in human NCI-H1975 cells assessed as reduction in AKT3 protein level incubated for 24 hrs by Western blot analysis; type: cell-based; conditions: dose 1.6-1000 nM, DDE = dose-dependent effect
[11] = molecular target: T1, RAC-gamma serine/threonine-protein kinase; assay: Induction of AKT3 degradation in human HCC827 cells assessed as reduction in AKT3 protein level incubated for 24 hrs by Western blot analysis; type: cell-based; conditions: dose 1.6-1000 nM, DDE = dose-dependent effect
[12] = molecular target: T1, RAC-gamma serine/threonine-protein kinase; assay: Induction of AKT3 degradation in human osimertinib resistant NCI-H1975 cells assessed as reduction in AKT3 protein level incubated for 24 hrs by Western blot analysis; type: cell-based; conditions: dose 1.6-1000 nM, DDE = dose-dependent effect
[13] = molecular target: T1, RAC-gamma serine/threonine-protein kinase; assay: Induction of AKT3 degradation in human NCI-H1299 cells assessed as reduction in AKT3 protein level incubated for 24 hrs by Western blot analysis; type: cell-based; conditions: dose 1.6-1000 nM, DDE = dose-dependent effect
NCI-H1975 [14] = assay: In vivo antitumor activity against human osimertinib resistant NCI-H1975 cells xenografted in NOD-SCID mouse assessed as tumor growth inhibition at 40 mg/kg, ip qd administered every 3 days for 5 weeks relative to control; type: functional, organism-based
[15] = molecular target: T1, RAC-gamma serine/threonine-protein kinase; assay: Binding affinity to AKT3 in human NCI-H1975 cells assessed as increase in thermal stability at 2 uM by thermal shift assay; type: cell-based
[16] = Toxicity in NOD-SCID mouse xenografted with human osimertinib resistant NCI-H1975 cells assessed as change in body weight at 10 to 40 mg/kg, […] administered every 3 days for 5 weeks; type: organism-based; conditions: in vivo, 840 h, dose 10-40 mg/kg
NCI-H1975 [17] = assay: In vivo antitumor activity against human osimertinib resistant NCI-H1975 cells xenografted in NOD-SCID mouse assessed as tumor growth inhibition at 10 mg/kg, ip qd administered every 3 days for 5 weeks relative to control; type: functional, organism-based
[18] = molecular target: T1, RAC-gamma serine/threonine-protein kinase; assay: Induction of AKT3 degradation in human osimertinib resistant NCI-H1975 cells by gel fluorescence and Coomassie bright blue staining based analysis; type: cell-based
NCI-H1975 [19] = assay: In vivo induction of AKT3 degradation in human osimertinib resistant cells xenografted in NOD-SCID mouse assessed as reduction in AKT3 level in tumor tissue at 10 to 40 mg/kg, ip qd administered every 3 days for 5 weeks by Western blot analysis; type: functional, organism-based; conditions: dose 10-40 mg/kg
[20] = molecular target: T1, RAC-gamma serine/threonine-protein kinase; assay: Induction of AKT3 degradation in human osimertinib resistant NCI-H1975 cells assessed as increase in AKT3 degradation at 100 nM incubated for 24 hrs in presence of cycloheximide; type: cell-based
[21] = molecular target: T1, RAC-gamma serine/threonine-protein kinase; assay: Induction of AKT3 degradation in human A549 cells assessed as reduction in AKT3 protein level incubated for 24 hrs by Western blot analysis; type: cell-based; conditions: dose 1.6-1000 nM, DDE = dose-dependent effect
[22] = Toxicity in NOD-SCID mouse xenografted with human PC-9 cells assessed as change in body weight at 20 mg/kg, ip qd administered once every 2 days for 28 days; type: organism-based; conditions: in vivo, 672 h, time 28 day
[23] = molecular target: Epidermal growth factor receptor (Homo sapiens, UniProt P00533); assay: Inhibition of EGFR in human NCI-H1975 cells; type: cell-based
Chain of Epidermal growth factor receptor (Homo sapiens, UniProt P00533) (P00533 whole entry): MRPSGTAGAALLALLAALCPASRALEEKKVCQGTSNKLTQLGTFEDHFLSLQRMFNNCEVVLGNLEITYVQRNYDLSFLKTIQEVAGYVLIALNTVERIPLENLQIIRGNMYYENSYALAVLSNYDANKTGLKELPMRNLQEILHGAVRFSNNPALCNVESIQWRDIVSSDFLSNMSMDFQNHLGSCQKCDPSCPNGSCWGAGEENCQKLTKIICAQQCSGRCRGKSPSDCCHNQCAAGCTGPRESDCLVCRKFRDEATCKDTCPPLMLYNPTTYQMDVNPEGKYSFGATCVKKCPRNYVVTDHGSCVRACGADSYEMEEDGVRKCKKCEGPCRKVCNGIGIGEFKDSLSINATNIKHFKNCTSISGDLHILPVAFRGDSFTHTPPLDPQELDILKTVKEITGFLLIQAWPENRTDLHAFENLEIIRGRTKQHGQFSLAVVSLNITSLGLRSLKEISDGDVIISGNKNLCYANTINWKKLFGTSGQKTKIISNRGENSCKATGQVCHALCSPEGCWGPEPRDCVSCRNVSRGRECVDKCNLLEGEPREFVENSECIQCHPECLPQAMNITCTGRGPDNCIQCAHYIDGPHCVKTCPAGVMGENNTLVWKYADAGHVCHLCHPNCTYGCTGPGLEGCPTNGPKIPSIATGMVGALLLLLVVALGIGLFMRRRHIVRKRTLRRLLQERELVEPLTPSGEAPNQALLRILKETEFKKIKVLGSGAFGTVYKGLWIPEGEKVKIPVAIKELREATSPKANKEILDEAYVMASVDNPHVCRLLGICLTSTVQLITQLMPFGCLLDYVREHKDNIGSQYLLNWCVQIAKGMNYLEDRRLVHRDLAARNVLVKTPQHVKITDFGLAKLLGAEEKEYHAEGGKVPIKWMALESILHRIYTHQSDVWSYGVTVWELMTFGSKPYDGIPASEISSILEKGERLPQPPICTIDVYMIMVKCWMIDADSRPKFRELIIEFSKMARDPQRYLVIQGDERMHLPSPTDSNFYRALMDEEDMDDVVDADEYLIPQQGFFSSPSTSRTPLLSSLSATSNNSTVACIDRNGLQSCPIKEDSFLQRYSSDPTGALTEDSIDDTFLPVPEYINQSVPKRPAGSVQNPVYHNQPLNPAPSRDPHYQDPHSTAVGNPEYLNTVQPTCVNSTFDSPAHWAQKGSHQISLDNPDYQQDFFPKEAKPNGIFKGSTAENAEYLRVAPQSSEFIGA

[24] = molecular target: T1, RAC-gamma serine/threonine-protein kinase; assay: Induction of AKT3 degradation in human PC-9 cells assessed as reduction in AKT3 protein level incubated for 24 hrs by Western blot analysis; type: cell-based; conditions: dose 1.6-1000 nM, DDE = dose-dependent effect
[25] = molecular target: T1, RAC-gamma serine/threonine-protein kinase; assay: Induction of AKT3 degradation in human osimertinib resistant NCI-H1975 cells assessed as increase in AKT3 ubiquitination at 100 nM incubated for 24 hrs in the presence of proteosome inhibitor MG132 by immunoprecipitation analysis; type: cell-based
[26] = molecular target: T1, RAC-gamma serine/threonine-protein kinase; assay: Binding affinity to full length N-terminal His6-sumo tagged AKT3 (unknown origin) expressed Escherichia coli BL21 (DE3) cells incubated for 2 hrs by pull-down/ LC-MS analysis
PC-9 = assay: In vivo antitumor activity against human PC-9 cells xenografted in NOD-SCID mouse assessed as tumor growth inhibition at 20 mg/kg, ip qd administered once every 2 days for 28 days relative to control; type: functional; conditions: PC-9, 672 h, time 28 day, read-out: TGI
[27] = molecular target: T1, RAC-gamma serine/threonine-protein kinase; assay: Induction of AKT3 degradation in human NCI-H460 cells assessed as reduction in AKT3 protein level incubated for 24 hrs by Western blot analysis; type: cell-based; conditions: dose 1.6-1000 nM, DDE = dose-dependent effect
NCI-H1975 [28] = assay: In vivo antitumor activity against human osimertinib resistant NCI-H1975 cells xenografted in NOD-SCID mouse assessed as tumor growth inhibition at 20 mg/kg, ip qd administered every 3 days for 5 weeks relative to control; type: functional, organism-based
[29] = molecular target: T1, RAC-gamma serine/threonine-protein kinase; assay: Induction of endogenous AKT3 degradation in human osimertinib resistant NCI-H1975 cells; type: cell-based

Compound: CCC(=O)Nc1cccc(-n2c(=O)cc(C)c3cnc(Nc4ccc(N5CCN(CCCCCCCCCCCCNC(=O)CC67CC8CC(CC(C8)C6)C7)CC5)cc4OC)nc32)c1
- EC50 [1]: > 1 µM
- Emax [2]: 74%
- EC50 [3]: > 1 µM
- EC50 [4]: 0.034 µM

Compound: COc1cc(N2CCN(CCCCCCCCCCCCNC(=O)CC34CC5CC(CC(C5)C3)C4)CC2)ccc1Nc1ncc2c(C)cc(=O)n(-c3cccc(N)c3)c2n1
- EC50 [1]: > 1 µM
- Emax [2]: 77%
- EC50 [3]: > 1 µM
- EC50 [4]: 0.102 µM

Compound: C=CC(=O)Nc1cccc(-n2c(=O)cc(C)c3cnc(Nc4ccc(N5CCN(CCCCCCCCCCCCNC(=O)CC67CC8CC(CC(C8)C6)C7)CC5)cc4OC)nc32)c1
- EC50 [5]: 0.0201 µM
- EC50 [1]: > 1 µM
- Emax [2]: 73%
- EC50 [3]: > 1 µM
- EC50 [4]: 0.052 µM

Compound: C=CC(=O)Nc1cccc(-n2c(=O)cc(C)c3cnc(Nc4ccc(N5CCN(C)CC5)cc4OC)nc32)c1
- EC50 [1]: > 1 µM
- EC50 [3]: > 1 µM
- EC50 [4]: > 1 µM

Compound: C=CC(=O)Nc1cccc(-n2c(=O)cc(C)c3cnc(Nc4ccc(N5CCN(C(=O)CCCCCCCCCCCNC(=O)CC67CC8CC(CC(C8)C6)C7)CC5)cc4OC)nc32)c1
- EC50 [1]: > 1 µM
- EC50 [3]: > 1 µM
- EC50 [4]: > 1 µM

Compound: COc1cc(N2CCN(CCCCCCCCCCCCNC(=O)CC34CC5CC(CC(C5)C3)C4)CC2)ccc1Nc1ncc2c(C)cc(=O)n(-c3ccc(NC(=O)C4CC4)cc3)c2n1
- EC50 [1]: > 1 µM
- EC50 [3]: > 1 µM
- IC50 (NCI-H1975 [6]): > 10 µM
- EC50 [4]: > 1 µM

Compound: C=CC(=O)Nc1ccc(-n2c(=O)cc(C)c3cnc(Nc4ccc(N5CCN(CCCCCCCCCCCCNC(=O)CC67CC8CC(CC(C8)C6)C7)CC5)cc4OC)nc32)cc1
- EC50 [1]: > 1 µM
- EC50 [3]: > 1 µM
- EC50 [4]: > 1 µM

Compound: COc1cc(N2CCN(CCCCCCCCCCCCNC(=O)CC34CC5CC(CC(C5)C3)C4)CC2)ccc1Nc1ncc2c(C)cc(=O)n(-c3cccc(NC(C)=O)c3)c2n1
- EC50 [1]: > 1 µM
- Emax [2]: 68%
- EC50 [3]: > 1 µM
- EC50 [4]: 0.067 µM

Compound: COc1cc(N2CCN(CCCCCCCCCCCCNC(=O)CC34CC5CC(CC(C5)C3)C4)CC2)ccc1Nc1ncc2c(C)cc(=O)n(-c3cccc(NC(=O)C4CC4)c3)c2n1
- Activity [10]: Dde
- Activity [11]: Dde
- Activity [12]: Dde
- Activity [13]: Dde
- Activity (NCI-H1975 [14]): Active
- Activity [15]: Active
- Activity [16]: Non-Toxic
- Activity (NCI-H1975 [17]): Active
- Activity [18]: Active
- EC50 [1]: > 1 µM
- Emax [2]: 88%
- Activity (NCI-H1975 [19]): Active
- EC50 [3]: > 1 µM
- Activity [20]: Active
- Activity [21]: Dde
- Activity [22]: Non-Toxic
- EC50 [23]: 0.579 µM
- Activity [24]: Dde
- Activity [25]: Active
- IC50 (NCI-H1975 [6]): 0.007 µM
- Activity [26]: Active
- EC50 [4]: 0.013 µM
- inhibition in vivo at 20 mg/kg (PC-9): 75%
- Activity [27]: Dde
- Activity (NCI-H1975 [28]): Active
- Activity [29]: Active
